This is an account of results in patent US20170135979A1, “PDE-DELTA INHIBITOR FOR THE TREATMENT OF CANCER” (Macau University of Science and Technology, priority 2015, published 2017).

For one assay, the system named is H2122 (K-RAS G12C) cells. The assay can be described thus: MTT cell viability assay, 72 h. It counts as cell-based. As to conditions: Homo sapiens, NCI-H2122. The protocol: (§1) A549 (K-RAS^G12S), H358 (K-RAS^G12C), H2122 (K-RAS^G12C) and CCD19-Lu cells were obtained from the American Type Culture Collection and cultured in an environment of 5% CO2 at 37° C. in RPMI-1640 medium supplemented with 10% fetal bovine serum (FBS), 100 units/mL penicillin, and 100 μg/mL streptomycin.
(§2) 3000 cells were seeded on 96-well plates, cultured overnight for cell adhesion, then treated with DMSO or various concentrations of compound of Formula (VII) for 72 h, at the end of the incubation, each well was added with 10 μL of MTT (5 mg/mL; Sigma), and the plates were incubated for an additional 4 h, then the crystals were dissolved in 100 μL of the resolved solution (10% SDS and 0.1 mM HCL). The absorbance at 570 nm was measured using a microplate reader (Tecan, Morrisville, N.C., USA). The cell viability was calculated relative to untreated controls, with results based on at least three independent experiments. […] The IC50 in CCD19-Lu is more than 20 μM (Table 1).
(In general: Tetrazolium assays rely on reduction of a dye to a coloured formazan, in cell work by metabolically active cells.)

The test system of assay [1] is normal lung epithelial cells (CCD19-Lu). As to the kind of experiment: MTT cell viability assay, 72 h. It counts as cell-based. To be noted: Homo sapiens, CCD 19Lu. The procedure:
as §1, §2

Another assay concerns A549 (K-RAS G12S) cells. As to the kind of experiment: MTT cell viability assay, 72 h. Format: cell-based. To be noted: Homo sapiens. The procedure: as §1, §2
The test system of a further assay is H358 (K-RAS G12C) cells. The assay can be described thus: MTT cell viability assay, 72 h. As to conditions: Homo sapiens, NCI-H358. Format: cell-based. The protocol:
as §1, §2

Assay [2] concerns p-C-raf, pErk, pAkt in A549 cells. The assay can be described thus: Western blot of signaling pathways downstream to K-RAS. As to conditions: A549, 2.5 μM, 5 μM and 10 μM, compared with untreated cells. Format: cell-based. The protocol:
Equal amounts of protein (20-40 μg per lane) were separated with a 10% SDS-PAGE gel, then the separated proteins were transferred to a Nitrocellulose (NC) membrane, which was then exposed to 5% non-fat dry milk in TBS containing 0.1% Tween 20 (0.1% TBST) for 1 hour at room temperature with constant agitation, followed by overnight incubation at 4° C. with primary antibodies, after washing three times by TBST, the membranes were incubated with secondary rabbit or mouse fluorescent antibodies, the signal intensity of the membranes was detected by anLI-COR Odessy scanner (Belfast, Me., USA). All primary antibodies were diluted 1:1000, while their recommended secondary antibodies were diluted 1:10000.
Background: Immunoblotting shows a protein as a band on a membrane.

The subject of assay [3] is A549 cells. The assay can be described thus: Annexin V-FITC/PI apoptosis assay by flow cytometry. It counts as cell-based. To be noted: A549, 2.5 μM, 5 μM or 10 μM, 48 h, compared with control group. The procedure:
Apoptosis was measured using the Annexin V-FITC apoptosis detection kit (BD Biosciences, San Jose, Calif., USA), according to the manufacturer protocol. […] Subsequently, cells were trypsinized, washed with PBS and stained with 100 μL binding buffer containing 2 μL Annexin-V FITC and 5 μL propidine iodide (PI) incubated in the dark at room temperature for 15 min, before further addition of 400 μL of 1× Annexin-binding buffer. The stained cells were analyzed quantitatively using a Flow Cytometer (BD Biosciences, San Jose, Calif., USA). Data were analyzed by Flow Jo software.
(In general: Flow cytometry measures light scatter and fluorescence of single cells or particles in a stream.)

Assay [4] relates to active (GTP-bound) K-RAS in A549 cells. The assay can be described thus: K-RAS activation (GTP pull down) assay with immunoblotting. It counts as cell-based. The procedure: Further, a K-RAS activation assay with subsequent immunoblotting has been carried out. […] Cells were lysed in lysis buffer, adjusted the volume of each sample to 1 mL with 1× Assay Lysis Buffer, 40 μL of the Raf1 RBD Agarose bead slurry were added to each sample quickly, follow by incubating the tubes at 4° C. for 1 hour with gentle agitation, beads were washed three times with cold lysis buffer, and bounded protein was resuspended in 40 μL of 2× reducing SDS-PAGE sample buffer and heated at 100° C. for 5 min. The samples were then run by SDS-PAGE followed by immunoblotting. Total amount of RAS being pulled down were compared between the control and treatment groups.
The compound of Formula (VII) inhibited K-RAS binding to GTP in A549 cells.

For assay [5], the system named is A549 cells. As to the kind of experiment: Colony formation assay. It counts as cell-based. To be noted: 10 days. The protocol: Still further, the inhibitory effect of the compound of Formula (VII) on the colony formation in A549 cells has been analyzed to provide further evidence that the compound of Formula (VII) inhibits the formation of colonies of cancerous cells to an exceptional degree, too. A549 cells were seeded on a six-well plate at a density of 500 cells per well. […] After 10 days, the colonies were fixed with 4% paraformaldehyde and stained with a 0.5% (0.5% w/v) crystal violet solutions, the number of colonies >50 was counted under a dissecting microscope.

In assay [6] the test system is human pancreatic ductal adenocarcinoma cells. To be noted: in vitro and in vivo; cited from earlier work.

Some results are limits rather than exact numbers.

In general, IC50 refers to the concentration needed to halve the response being measured. A high value points to weaker potency in that assay. As to `CC(C)(C)c1cc2oc3c(c2c(/C=N/NC(=O)c2ccc(O)cc2O)c1O)CCCC3` [compound of Formula (VII)], the IC50 is 3.35 ± 2.74 µM in the assay with H2122 (K-RAS G12C) cells, more than 20 µM in [1], 5.59 ± 1.27 µM in the assay on A549 (K-RAS G12S) cells and 2.4 ± 2.1 µM with H358 (K-RAS G12C) cells. Also, the “level of p-C-raf” value in assay [2] was “decreased”. Also, the “level of pAkt” value in [2] was “decreased”. In addition, the “level of pErk” value in assay [2] was “decreased”. In addition, in the assay with A549 cells [3], the cell apoptosis entry is “induced significant cell apoptosis”. Besides, the “amount of K-RAS being pulled down (GTP-bound K-RAS)” value in assay [4] (A549, 10 μM, 48 h, compared to untreated control) is “caused a decrease”. For the same molecule, the colony formation capacity entry in the assay on A549 cells [5] (A549, 1.25 μM, 2.5 μM, 5 μM or 10 μM) was “significantly inhibited”. The colonies formed result with A549 cells [5] (A549, 10 μM) is “no visible colonies”.
For the molecule `c1ccc(Cn2c(-c3ccc(OC[C@H](C4CCNCC4)n4c(-c5ccccc5)nc5ccccc54)cc3)nc3ccccc32)cc1` [Deltarasin, reference compound], the “GTP binding with K-RAS” value in assay [4] (A549, 4 μM, positive control) is listed as “suppression”. For the same molecule, in assay [6], the “proliferation of human pancreatic ductal adenocarcinoma cells” value is “strongly suppressed”.
